Data taken from US12150998B2, “Bicyclic peptide ligands specific for P-selectin” (BicycleTx Limited, priority 2021, dated 2024).
Where two headings read alike, the source gives them in different places. Starred links: 1 amine or outer side, 2 acyl side, 3 side chain; linkers in the order of their positions; H or OH if unused. Positions of bridges follow the written chain, without caps; N, C: chain ends. Non-standard residues stand in square brackets, D forms with d. Residues, ends and D or L forms follow the SMILES beside them. Chains are numbered I, II in the order given. No end group written: not given here. X3 = O=C(CCOCCN(CCOCCC(=O)NCCOCCOCCOCCOCCOCCOCCOCCOCCOCCOCCOCCOCCOCCOCCOCCOCCOCCOCCOCCOCCOCCOCCOCCn1cc(CCC(=O)[*:2])nn1)CCOCCC(=O)NCCOCCOCCOCCOCCOCCOCCOCCOCCOCCOCCOCCOCCOCCOCCOCCOCCOCCOCCOCCOCCOCCOCCOCCn1cc(CCC(=O)[*:3])nn1)NCCOCCOCCOCCOCCOCCOCCOCCOCCOCCOCCOCCOCCOCCOCCOCCOCCOCCOCCOCCOCCOCCOCCOCCn1cc(CCC(=O)[*:1])nn1; X2 = O=C(CCCC(=O)NCCOCCOCCOCCOCCOCCOCCOCCOCCOCCOCCOCCOCCOCCOCCOCCOCCOCCOCCOCCOCCOCCOCCOCCn1cc(CCC(=O)[*:2])nn1)NCCOCCOCCOCCOCCOCCOCCOCCOCCOCCOCCOCCOCCOCCOCCOCCOCCOCCOCCOCCOCCOCCOCCOCCn1cc(CCC(=O)[*:1])nn1; X1 = O=C(C[*:1])N1CCN(C(=O)C[*:2])CCN(C(=O)C[*:3])CC1; 1Nal = N[C@@H](Cc1cccc2ccccc12)C(=O)O

Assays:
[1] = target: T1, P-Selectin:PSGL1 interaction (Homo sapiens, UniProt P16109); experiment: Receptor ligand inhibition assay (P-Selectin binding to HL-60 cells); type: cell-based; details: for Inhibition at top concentration: 100−% response at top concentration
T1 construct: host or cells: HL-60 cells (ATCC, CCL-240) supply the PSGL-1 partner endogenously
T1 sequence (P16109 42-771 limits assumed): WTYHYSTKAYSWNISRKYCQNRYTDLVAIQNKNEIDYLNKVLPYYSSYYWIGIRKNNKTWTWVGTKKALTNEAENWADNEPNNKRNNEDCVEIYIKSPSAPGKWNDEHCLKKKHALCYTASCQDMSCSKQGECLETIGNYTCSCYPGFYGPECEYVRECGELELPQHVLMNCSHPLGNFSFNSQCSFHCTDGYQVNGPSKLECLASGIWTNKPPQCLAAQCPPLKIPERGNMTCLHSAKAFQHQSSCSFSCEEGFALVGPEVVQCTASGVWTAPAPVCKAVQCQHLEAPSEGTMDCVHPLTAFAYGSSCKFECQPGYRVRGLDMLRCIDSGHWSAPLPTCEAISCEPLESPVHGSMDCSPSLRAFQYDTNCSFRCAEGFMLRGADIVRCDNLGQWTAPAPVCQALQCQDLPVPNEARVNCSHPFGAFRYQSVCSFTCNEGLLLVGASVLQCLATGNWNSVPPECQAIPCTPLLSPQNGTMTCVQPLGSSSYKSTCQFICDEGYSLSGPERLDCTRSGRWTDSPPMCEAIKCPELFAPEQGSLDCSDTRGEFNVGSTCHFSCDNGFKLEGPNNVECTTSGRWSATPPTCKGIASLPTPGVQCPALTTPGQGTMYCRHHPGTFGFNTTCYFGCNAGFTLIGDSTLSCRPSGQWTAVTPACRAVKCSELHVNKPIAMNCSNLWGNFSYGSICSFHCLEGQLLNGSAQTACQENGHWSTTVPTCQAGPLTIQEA
Experimental: Bicycle test samples, SelG1 (Crizanlizumab) were serially diluted maintaining 0.5% DMSO in assay buffer (25 mM HEPES, 121 mM NaCl, 5.4 mM KCl, 0.8 mM MgCl2, 1.8 mM CaCl2), 6 mM […], 5.5 mM glucose, 1% BSA, pH7.4) and transferred to 384 well clear bottom plates (Corning, 3712) with a final volume of 6 μL. […], of P-Selectin in imaging buffer (25 mM HEPES, 121 mM NaCl, 5.4 mM KCl, 0.8 mM MgCl2, 1.8 mM CaCl2), 6 mM […], 5.5 mM glucose, pH7.4) was added to give a 5 nM final concentration and incubated at room temperature for 15 minutes. HL-60 cells (ATCC, CCL-240) mixed with 1 μg/mL far red labelled wheat germ agglutinin (WGA, ThermoFisher W21404) and 1 μg/mL AlexaFluor 488-streptavidin (Invitrogen S11223) were added to the plate and incubated for 2 hours at room temperature in the absence of light. Staining and antibody binding were quantified by simultaneously scanning the microplates with 488 nm and 640 nm lasers on a mirrorball microplate cytometer, AF488 on FL2 triggering on AF647-WGA on FL4. Data was analysed in Dotmatics, using a four parameter logistic fit to generate IC50 values and % response. Percent inhibition was calculated using 100−% response at top concentration.

human P-Selectin protein = target: T2, human P-Selectin protein (Homo sapiens, UniProt P16109); experiment: SPR binding assay (Biacore); details: recombinant biotinylated human P-Selectin, 25° C.
T2 sequence (P16109 42-830): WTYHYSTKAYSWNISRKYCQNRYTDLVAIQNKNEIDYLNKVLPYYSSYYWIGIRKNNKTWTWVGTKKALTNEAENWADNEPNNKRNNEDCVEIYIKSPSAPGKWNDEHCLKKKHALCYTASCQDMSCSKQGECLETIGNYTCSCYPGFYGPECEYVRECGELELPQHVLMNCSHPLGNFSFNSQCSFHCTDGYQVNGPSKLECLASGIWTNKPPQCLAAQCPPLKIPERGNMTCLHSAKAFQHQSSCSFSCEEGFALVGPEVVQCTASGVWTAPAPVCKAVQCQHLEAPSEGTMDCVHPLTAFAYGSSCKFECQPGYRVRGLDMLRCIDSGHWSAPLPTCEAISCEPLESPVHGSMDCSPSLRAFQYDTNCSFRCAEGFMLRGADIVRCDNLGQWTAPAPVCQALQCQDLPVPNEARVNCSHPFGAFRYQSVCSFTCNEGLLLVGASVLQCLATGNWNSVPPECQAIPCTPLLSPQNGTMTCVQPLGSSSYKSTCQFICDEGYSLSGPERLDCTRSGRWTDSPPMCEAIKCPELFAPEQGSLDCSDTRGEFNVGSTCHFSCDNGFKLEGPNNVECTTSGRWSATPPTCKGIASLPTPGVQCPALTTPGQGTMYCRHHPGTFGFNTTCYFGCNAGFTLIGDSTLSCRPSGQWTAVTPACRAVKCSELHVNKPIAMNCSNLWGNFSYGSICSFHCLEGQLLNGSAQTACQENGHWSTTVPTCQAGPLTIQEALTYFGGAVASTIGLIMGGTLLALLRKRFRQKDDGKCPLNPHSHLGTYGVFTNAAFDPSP
How it was run: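 Biotinylated recombinant human P-Selectin was captured on a streptavidin chip (1000-1500 RU), and monomeric peptides were injected in PBS/0.05% Tween 20 with 0.5% DMSO at 25 °C (top 200 nM–50 μM, 2- or 3-fold series). Double-referenced data were fitted to a kinetic model with mass transport to give ka, kd and KD.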

[2] = 5 nM P-Selectin, HL-60 cells, geomean of n=3, read-out: IC50

| Kd (human P-Selectin protein; read-out: Affinity KD determined by SPR) [nM] | Compound | IC50 [1] [nM] | Inhibition at top concentration ([1]; geomean of n=3) [%] | Kd (human P-Selectin protein; Affinity KD determined by SPR) [nM] | IC50 [1, 2] [nM] |
| --- | --- | --- | --- | --- | --- |
|  | CC(C)C[C@@H]1NC(=O)[C@H](CO)NC(=O)[C@@H]2CCCN2C(=O)[C@H](C(C)C)NC(=O)[C@H](CC(=O)O)NC(=O)[C@@H]2CSCC(=O)N3CCN(CCN(CC3)C(=O)CSC[C@@H](C(=O)N[C@@H](C)C(=O)N[C@@H](CCCCNC(=O)CCc3cn(CCOCCOCCOCCOCCOCCOCCOCCOCCOCCOCCOCCOCCOCCOCCOCCOCCOCCOCCOCCOCCOCCOCCOCCNC(=O)CCOCC(COCCC(=O)NCCOCCOCCOCCOCCOCCOCCOCCOCCOCCOCCOCCOCCOCCOCCOCCOCCOCCOCCOCCOCCOCCOCCOCCn4cc(CCC(=O)NCCCC[C@H](NC(=O)[C@H](C)NC(=O)[C@@H]5CSCC(=O)N6CCN7CCN(CC6)C(=O)CSC[C@H](NC(=O)[C@H](Cc6cccc8ccccc68)NC(=O)[C@H](CC(=O)O)NC(=O)[C@H](C)NC(=O)[C@H](CC(=O)O)NC(=O)[C@@H](NC(=O)[C@H](C)N)CSCC7=O)C(=O)N[C@@H](CC(=O)O)C(=O)N[C@@H](C(C)C)C(=O)N6CCC[C@H]6C(=O)N[C@@H](CO)C(=O)N[C@@H](CC(C)C)C(=O)N6CCC[C@H]6C(=O)N5)C(N)=O)nn4)(COCCC(=O)NCCOCCOCCOCCOCCOCCOCCOCCOCCOCCOCCOCCOCCOCCOCCOCCOCCOCCOCCOCCOCCOCCOCCOCCn4cc(CCC(=O)NCCCC[C@H](NC(=O)[C@H](C)NC(=O)[C@@H]5CSCC(=O)N6CCN7CCN(CC6)C(=O)CSC[C@H](NC(=O)[C@H](Cc6cccc8ccccc68)NC(=O)[C@H](CC(=O)O)NC(=O)[C@H](C)NC(=O)[C@H](CC(=O)O)NC(=O)[C@@H](NC(=O)[C@H](C)N)CSCC7=O)C(=O)N[C@@H](CC(=O)O)C(=O)N[C@@H](C(C)C)C(=O)N6CCC[C@H]6C(=O)N[C@@H](CO)C(=O)N[C@@H](CC(C)C)C(=O)N6CCC[C@H]6C(=O)N5)C(N)=O)nn4)COCCC(=O)NCCOCCOCCOCCOCCOCCOCCOCCOCCOCCOCCOCCOCCOCCOCCOCCOCCOCCOCCOCCOCCOCCOCCOCCn4cc(CCC(=O)NCCCC[C@H](NC(=O)[C@H](C)NC(=O)[C@@H]5CSCC(=O)N6CCN7CCN(CC6)C(=O)CSC[C@H](NC(=O)[C@H](Cc6cccc8ccccc68)NC(=O)[C@H](CC(=O)O)NC(=O)[C@H](C)NC(=O)[C@H](CC(=O)O)NC(=O)[C@@H](NC(=O)[C@H](C)N)CSCC7=O)C(=O)N[C@@H](CC(=O)O)C(=O)N[C@@H](C(C)C)C(=O)N6CCC[C@H]6C(=O)N[C@@H](CO)C(=O)N[C@@H](CC(C)C)C(=O)N6CCC[C@H]6C(=O)N5)C(N)=O)nn4)nn3)C(N)=O)NC(=O)[C@@H]3CCCN3C1=O)C(=O)CSC[C@H](NC(=O)[C@H](C)N)C(=O)N[C@@H](CC(=O)O)C(=O)N[C@@H](C)C(=O)N[C@@H](CC(=O)O)C(=O)N[C@@H](Cc1cccc3ccccc13)C(=O)N2 [BCY12262] | 3.29 | 68 | 0.017 |  |
|  | CC(C)C[C@@H]1NC(=O)[C@H](CO)NC(=O)[C@@H]2CCCN2C(=O)[C@H](C(C)C)NC(=O)[C@H](CC(=O)O)NC(=O)[C@@H]2CSCC(=O)N3CCN(CCN(CC3)C(=O)CSC[C@@H](C(=O)N[C@@H](C)C(=O)N[C@@H](CCCCNC(=O)CCc3cn(CCOCCOCCOCCOCCOCCOCCOCCOCCOCCOCCOCCOCCOCCOCCOCCOCCOCCOCCOCCOCCOCCOCCOCCNC(=O)CCCC(=O)NCCOCCOCCOCCOCCOCCOCCOCCOCCOCCOCCOCCOCCOCCOCCOCCOCCOCCOCCOCCOCCOCCOCCOCCn4cc(CCC(=O)NCCCC[C@H](NC(=O)[C@H](C)NC(=O)[C@@H]5CSCC(=O)N6CCN7CCN(CC6)C(=O)CSC[C@H](NC(=O)[C@H](Cc6cccc8ccccc68)NC(=O)[C@H](CC(=O)O)NC(=O)[C@H](C)NC(=O)[C@H](CC(=O)O)NC(=O)[C@@H](NC(=O)[C@H](C)N)CSCC7=O)C(=O)N[C@@H](CC(=O)O)C(=O)N[C@@H](C(C)C)C(=O)N6CCC[C@H]6C(=O)N[C@@H](CO)C(=O)N[C@@H](CC(C)C)C(=O)N6CCC[C@H]6C(=O)N5)C(N)=O)nn4)nn3)C(N)=O)NC(=O)[C@@H]3CCCN3C1=O)C(=O)CSC[C@H](NC(=O)[C@H](C)N)C(=O)N[C@@H](CC(=O)O)C(=O)N[C@@H](C)C(=O)N[C@@H](CC(=O)O)C(=O)N[C@@H](Cc1cccc3ccccc13)C(=O)N2 [BCY12258] (I: H-ACDAD[1Nal]CDVPSLPCAK-NH2 / II: H-ACDAD[1Nal]CDVPSLPCAK-NH2; linker I:2-I:7-I:14, II:2-II:7-II:14 via X1; linker I:16-II:16 via X2) |  | 57 | 0.409 | > 97.7 |
| < 10 | CC(C)C[C@@H]1NC(=O)[C@H](CO)NC(=O)[C@@H]2CCCN2C(=O)[C@H](C(C)C)NC(=O)[C@H](CC(=O)O)NC(=O)[C@@H]2CSCC(=O)N3CCN(CCN(CC3)C(=O)CSC[C@@H](C(=O)N[C@@H](C)C(N)=O)NC(=O)[C@@H]3CCCN3C1=O)C(=O)CSC[C@H](NC(=O)[C@H](C)N)C(=O)N[C@@H](CC(=O)O)C(=O)N[C@@H](C)C(=O)N[C@@H](CC(=O)O)C(=O)N[C@@H](Cc1cccc3ccccc13)C(=O)N2 [BCY12027, A-(SEQ ID NO: 2)-A] (H-ACDAD[1Nal]CDVPSLPCA-NH2; linker 2-7-14 via X1; N-terminus assumed) |  | 36 |  | > 36.8 |
|  | I: ACDAD[1Nal]CDVPSLPCAK-NH2 / II: ACDAD[1Nal]CDVPSLPCAK-NH2 / III: ACDAD[1Nal]CDVPSLPCAK-NH2 (linker I:2-I:7-I:14, II:2-II:7-II:14, III:2-III:7-III:14 via X1; linker I:16-II:16-III:16 via X3) [BCY12260] |  | 64 | 0.109 | 9.62 |
